# Patent US20220071993A1, “A VILAZODONE SOLID DISPERSION AND PREPARATION METHOD THEREOF” (SUNSHINE LAKE PHARMA CO., LTD., priority 2018, published 2022)
# Structures can show the parent of a compound that is named as a salt. Where two headings read alike, the source gives them in different places.
# Experiments:
# [1] = cited from earlier work
# [2] = Dissolution of vilazodone hydrochloride in ethanol aqueous solution; format: physicochemical; details: 10 mg
# Protocol: 10 mg of vilazodone hydrochloride solid powder was put into a 4 ml EP tube. 1 ml of ethanol aqueous solution of different concentrations was added to each tube separately, and the tubes were sonicated in a water bath for 30 minutes. The dissolution of the powder was observed; after the samples were placed at room temperature for 24 h, the appearance of the samples was observed and whether there was precipitation was noted.
# [3] = Dissolution of vilazodone hydrochloride in methanol aqueous solution; format: physicochemical; details: 30 mg
# Protocol: 30 mg of vilazodone hydrochloride solid powder was put into a 10 ml EP tube 3 ml of methanol aqueous solution of different concentrations was added to each tube separately, and the tubes were sonicated in a water bath for 30 minutes. The dissolution of the powders was observed; if the powder was dissolved quickly, a small amount of powder was continued to add to increase the concentration of the sample and was dissolved ultrasonically; finally, the solution samples were placed at room temperature for 24 hours to observe whether there was precipitation.
# [4] = Dissolution of vilazodone hydrochloride in acetone aqueous solution; format: physicochemical; details: 10 mg
# Protocol: 10 mg of vilazodone hydrochloride solid powder was put into a 4 ml EP tube. 1 ml of acetone aqueous solution of different concentrations was added to each tube separately, and the tubes were sonicated in a water bath for 30 minutes. The dissolution of the powder was observed; if the powder was dissolved quickly, a small amount of powder was continued to add to increase the concentration of the sample and was dissolved ultrasonically; finally, the solution samples were placed at room temperature for 24 hours to observe whether there was precipitation.
# [5] = Dissolution of vilazodone in different organic solvents; format: physicochemical; details: 10 mg/ml, sonicated 30 min, room temperature 24 h
# Protocol: 10 mg of vilazodone hydrochloride solid powder was put into a 4 ml EP tube. 1 ml of dichloromethane, methanol, ethanol, acetone and ethyl acetate was added to each tube separately, and the tubes were sonicated in a water bath for 30 minutes. The dissolution of the powder was observed; after the samples were placed at room temperature for 24 h, the appearance of the samples was observed and whether there was precipitation was noted.
smiles,measurement,setting,value
"N#Cc1ccc2[nH]cc(CCCCN3CCN(c4ccc5oc(C(N)=O)cc5c4)CC3)c2c1 [vilazodone hydrochloride, 5-{4-[4-(5-cyano-3-indole)-butyl]-1-piperazinyl}-coumarone-2-carboxamide]",solubility,[1]; environment with pH 3.1,a certain solubility
same,solubility,[1]; gastric juice (pH 1.2) and intestinal juice (pH 4.5 to 6.8),poor solubility
same,Phenomenon (dissolution),[2]; Ethanol 0.1 ml + Water 0.9 ml,"Insoluble, a lot of precipitation"
same,Phenomenon (dissolution),[2]; Ethanol 0.2 ml + Water 0.8 ml,"Insoluble, a lot of precipitation"
same,Phenomenon (dissolution),[2]; Ethanol 0.3 ml + Water 0.7 ml,"Insoluble, a lot of precipitation"
same,Phenomenon (dissolution),[2]; Ethanol 0.4 ml + Water 0.6 ml,"Dissolved, precipitate after 1 day"
same,Phenomenon (dissolution),[2]; Ethanol 0.6 ml + Water 0.4 ml,"Dissolved, precipitate after 1 day"
same,Phenomenon (dissolution),[2]; Ethanol 0.8 ml + Water 0.2 ml,"Insoluble, a lot of precipitation"
same,Phenomenon (dissolution),[2]; Ethanol 0.9 ml + Water 0.1 ml,"Insoluble, a lot of precipitation"
same,Result (dissolution),[3]; Methanol 0.3 ml + Water 2.7 ml,"Insoluble, a lot of precipitation"
same,Result (dissolution),[3]; Methanol 0.6 ml + Water 2.4 ml,"Insoluble, a lot of precipitation"
same,Result (dissolution),[3]; Methanol 0.9 ml + Water 2.1 ml,"Insoluble, a lot of precipitation"
same,Result (dissolution),[3]; Methanol 1.2 ml + Water 1.8 ml,"Insoluble, a lot of precipitation"
same,Phenomenon (dissolution),[4]; Acetone 0.1 ml + Water 0.9 ml,"Insoluble, a lot of precipitation"
same,Phenomenon (dissolution),[4]; Acetone 0.2 ml + Water 0.8 ml,"Insoluble, a lot of precipitation"
same,Phenomenon (dissolution),[4]; Acetone 0.3 ml + Water 0.7 ml,"Insoluble, a lot of precipitation"
same,Phenomenon (dissolution),[4]; Acetone 0.9 ml + Water 0.1 ml,"Insoluble, a lot of precipitation"
same,Phenomenon (dissolution),[5]; Acetone,"Insoluble, a little of precipitation"
same,Phenomenon (dissolution),[5]; Dichloromethane,"Insoluble, a lot of precipitation"
same,Phenomenon (dissolution),[5]; Ethanol,"Insoluble, a little of precipitation"
same,Phenomenon (dissolution),[5]; Ethyl acetate,"Insoluble, a lot of precipitation"
same,Phenomenon (dissolution),[5]; Methanol,"Insoluble, a little of precipitation"
